molecular target: Transient receptor potential cation channel subfamily V member 1 (Homo sapiens, UniProt Q8NER1); experiment: Ca2+ Influx Functional Assay for the Determination of in Vitro Activity.; details: not given
Description: The functional antagonist activity of compounds at the TRPV1 receptor was determined with a Ca2+ influx assay by measuring the effect on capsaicin (0.05 uM) evoked increase in intracellular Ca2+ levels using cells stably expressing recombinant human TRPV1. All compounds were tested over an 11-point half-log concentration range. The fluorescent Ca2+ chelating dye fluo-4 was used as an indicator of the relative levels of Ca2+ in a 96-well format using a fluorescence imaging plate reader. Fluorescence readings were made at 1-5 s intervals over the 240 s course of the experimental run. The peak increase in relative fluorescence units was calculated and expressed as a percentage of the 0.05 uM capsaicin (control) response. Curve fits of the data were solved using a four-parameter logistic Hill equation in GraphPad Prism, and IC50 values were calculated.

Chain of Transient receptor potential cation channel subfamily V member 1 (Q8NER1 whole entry): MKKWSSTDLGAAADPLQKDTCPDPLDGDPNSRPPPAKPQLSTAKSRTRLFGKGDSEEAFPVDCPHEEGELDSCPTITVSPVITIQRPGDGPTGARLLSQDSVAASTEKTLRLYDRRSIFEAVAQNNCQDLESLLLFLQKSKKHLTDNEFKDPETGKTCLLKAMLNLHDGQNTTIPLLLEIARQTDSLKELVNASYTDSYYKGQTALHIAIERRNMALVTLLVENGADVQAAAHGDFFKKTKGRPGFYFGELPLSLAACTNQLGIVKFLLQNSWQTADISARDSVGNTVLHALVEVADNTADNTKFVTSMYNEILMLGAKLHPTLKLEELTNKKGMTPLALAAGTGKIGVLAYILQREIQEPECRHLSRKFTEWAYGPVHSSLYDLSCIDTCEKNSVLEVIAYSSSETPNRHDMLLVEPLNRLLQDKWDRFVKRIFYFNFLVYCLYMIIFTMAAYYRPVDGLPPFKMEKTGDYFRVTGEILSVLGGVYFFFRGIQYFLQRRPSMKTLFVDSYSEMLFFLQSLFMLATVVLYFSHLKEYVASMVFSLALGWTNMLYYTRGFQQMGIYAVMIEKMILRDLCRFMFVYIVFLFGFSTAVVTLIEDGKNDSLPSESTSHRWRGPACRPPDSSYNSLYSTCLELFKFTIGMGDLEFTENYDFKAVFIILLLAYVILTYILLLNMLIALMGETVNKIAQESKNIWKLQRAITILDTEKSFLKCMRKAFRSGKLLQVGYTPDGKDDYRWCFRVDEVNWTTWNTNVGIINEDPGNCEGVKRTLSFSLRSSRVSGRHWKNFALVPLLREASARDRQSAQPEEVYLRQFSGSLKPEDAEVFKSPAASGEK

Row | EC50 [nM] | Structure (SMILES)
1 | 25.5 | O=C(NCc1ccc(N2[C@@H]3CCC[C@H]2CC3)c(F)c1F)Nc1cccc2[nH]ncc12 [1-({4-[(1R,5S)-8-azabicyclo[3.2.1]octan-8-yl]-2,3-difluorophenyl}methyl)-3-1H-indazol-4-ylurea]
2 | 10.3 | CC(C)(C)CCc1cc(N2[C@@H]3CCC[C@H]2CC3)ccc1CNC(=O)Nc1cccc2[nH]ncc12 [1-({4-[(1R,5S)-8-azabicyclo[3.2.1]octan-8-yl]-2-(3,3-dimethylbutyl)phenyl}methyl)-3-1H-indazol-4-ylurea]
3 | 285 | CCN1CCc2cc(CNC(=O)Nc3cccc4[nH]ncc34)ccc21 [1-[(1-ethyl-2,3-dihydro-1H-indol-5-yl)methyl]-3-1H-indazol-4-ylurea]
4 | 19 | Cn1ncc2c(NC(=O)NCc3ccc(N4[C@@H]5CCC[C@H]4CC5)cc3Cc3ccccc3)cccc21 [1-({4-[(1R,5S)-8-azabicyclo[3.2.1]octan-8-yl]-2-benzylphenyl}methyl)-3-(1-methyl-1H-indazol-4-yl)urea]
5 | 19.8 | Cc1cc(CNC(=O)Nc2cccc3[nH]ncc23)ccc1N1[C@@H]2CCC[C@H]1CC2 [1-({4-[(1R,5S)-8-azabicyclo[3.2.1]octan-8-yl]-3-methylphenyl}methyl)-3-1H-indazol-4-ylurea]
6 | 43.2 | O=C(NCc1ccc(N2[C@@H]3CCC[C@H]2CC3)c(Br)c1)Nc1cccc2[nH]ncc12 [1-({4-[(1R,5S)-8-azabicyclo[3.2.1]octan-8-yl]-3-bromophenyl}methyl)-3-1H-indazol-4-ylurea]
7 | 82 | O=C(NCc1cc(F)c(N2[C@@H]3CC[C@H]2CC2(C3)OCCO2)cc1F)Nc1cccc2[nH]ncc12 [1-({4-[(1S,5R)-8-azaspiro[bicyclo[3.2.1]octane-3,2'-[1,3]dioxolane]]-2,5-difluorophenyl}methyl)-3-1H-indazol-4-ylurea]
8 | 157 | O=C1C[C@H]2CC[C@@H](C1)N2c1cc(F)c(CNC(=O)Nc2cccc3[nH]ncc23)cc1F [1-({2,5-difluoro-4-[(1R,5S)-3-oxo-8-azabicyclo[3.2.1]octan-8-yl]phenyl}methyl)-3-1H-indazol-4-ylurea]
9 | 35.3 | CC(C)c1cc(N2[C@@H]3CCC[C@H]2CC3)ccc1CNC(=O)Nc1cccc2[nH]ncc12 [1-({4-[(1R,5S)-8-azabicyclo[3.2.1]octan-8-yl]-2-(propan-2-yl)phenyl}methyl)-3-1H-indazol-4-ylurea]
10 | 902 | Cn1c2ccccc2c2cc(CNC(=O)Nc3cccc4[nH]ncc34)ccc21 [3-1H-indazol-4-yl-1-[(9-methyl-9H-carbazol-3-yl)methyl]urea]
11 | 29 | Cc1cc(N2[C@@H]3CCC[C@H]2CC3)ccc1CNC(=O)Nc1cccc2[nH]ncc12 [1-({4-[(1R,5S)-8-azabicyclo[3.2.1]octan-8-yl]-2-methylphenyl}methyl)-3-1H-indazol-4-ylurea]

Row | Structure (SMILES) | EC50 [nM]
12 | O=C(NCc1ccc(N2[C@@H]3CCC[C@H]2CC3)c(Cl)c1)Nc1cccc2[nH]ncc12 [1-({4-[(1R,5S)-8-azabicyclo[3.2.1]octan-8-yl]-3-chlorophenyl}methyl)-3-1H-indazol-4-ylurea] | 20.4
13 | O=C(NCc1cc(F)c(N2[C@@H]3CCC[C@H]2CC3)c(F)c1)Nc1cccc2[nH]ncc12 [1-({4-[(1R,5S)-8-azabicyclo[3.2.1]octan-8-yl]-3,5-difluorophenyl}methyl)-3-1H-indazol-4-ylurea] | 12.6
14 | O=C(NCc1ccc(N2[C@@H]3CCC[C@H]2CC3)c(C(F)(F)F)c1)Nc1cccc2[nH]ncc12 [1-({4-[(1R,5S)-8-azabicyclo[3.2.1]octan-8-yl]-3-(trifluoromethyl)phenyl}methyl)-3-1H-indazol-4-ylurea] | 26.9
15 | O=C(NCc1ccc(N2[C@@H]3CCC[C@H]2CC3)c(F)c1)Nc1cccc2[nH]ncc12 [1-({4-[(1R,5S)-8-azabicyclo[3.2.1]octan-8-yl]-3-fluorophenyl}methyl)-3-1H-indazol-4-ylurea] | 14.8

same assay, conditions: pH 7.4; 22 °C

Row | EC50 [nM] | Structure (SMILES)
16 | 3.8 | Cc1cc2c(NC(=O)NCc3ccc(N4CCCCCC4)cc3)cccc2cn1 [3-{[4-(azepan-1-yl)phenyl]methyl}-1-(3-methylisoquinolin-5-yl)urea]
17 | 5.7 | O=C(NCc1ccc(N2CCCCCC2)cc1C(F)(F)F)Nc1cccc2cnccc12 [3-{[4-(azepan-1-yl)-2-(trifluoromethyl)phenyl]methyl}-1-isoquinolin-5-ylurea]
18 | 4.7 | O=C(NCc1ccc(N2CCCCCCC2)cc1)Nc1cccc2cnccc12 [3-{[4-(azocan-1-yl)phenyl]methyl}-1-isoquinolin-5-ylurea]
19 | 91 | O=C(NCc1ccc(N2CCOCC2)cc1)Nc1cccc2cnccc12 [1-isoquinolin-5-yl-3-{[4-(morpholin-4-yl)phenyl]methyl}urea]
20 | 3.3 | O=C(NCc1ccc(N2CCCCCC2)cc1)Nc1cccc2cnccc12 [3-{[4-(azepan-1-yl)phenyl]methyl}-1-isoquinolin-5-ylurea]
21 | 2.8 | O=C(NCc1ccc(N2CCCCCC2)c(F)c1)Nc1cccc2cnccc12 [3-{[4-(azepan-1-yl)-3-fluorophenyl]methyl}-1-isoquinolin-5-ylurea]
22 | 7.3 | O=C(NCc1ccc(N2CCCCC2)cc1)Nc1cccc2cnccc12 [1-isoquinolin-5-yl-3-{[4-(piperidin-1-yl)phenyl]methyl}urea]
23 | 4.6 | O=C(NCc1ccc(N2CCCCCC2)c(C(F)(F)F)c1)Nc1cccc2cnccc12 [3-{[4-(azepan-1-yl)-3-(trifluoromethyl)phenyl]methyl}-1-isoquinolin-5-ylurea]
24 | 3.3 | O=C(NCc1ccc(N2[C@@H]3CCC[C@H]2CC3)cc1)Nc1cccc2cnccc12 [3-({4-[(1R,5S)-8-azabicyclo[3.2.1]octan-8-yl]phenyl}methyl)-1-isoquinolin-5-ylurea]
25 | 258 | CC1CN(c2ccc(CNC(=O)Nc3cccc4cnccc34)cc2)CC(C)O1 (stereo not given) [3-{[4-(2,6-dimethylmorpholin-4-yl)phenyl]methyl}-1-isoquinolin-5-ylurea]
26 | 9.3 | CC1CCN(c2ccc(CNC(=O)Nc3cccc4cnccc34)cc2)CC1 [1-isoquinolin-5-yl-3-{[4-(4-methylpiperidin-1-yl)phenyl]methyl}urea]
27 | 2.1 | O=C(NCc1ccc(C(F)(F)F)cc1)Nc1cccc2cnccc12 [1-isoquinolin-5-yl-3-{[4-(trifluoromethyl)phenyl]methyl}urea]
28 | 39.3 | O=C(NCc1cc(F)c(N2CCCCCC2)c(F)c1)Nc1cccc2[nH]ncc12 [1-{[4-(azepan-1-yl)-3,5-difluorophenyl]methyl}-3-1H-indazol-4-ylurea]
29 | 9.3 | O=C(NCc1cc(F)c(N2CCOCC2)c(F)c1)Nc1cccc2cnccc12 [3-{[3,5-difluoro-4-(morpholin-4-yl)phenyl]methyl}-1-isoquinolin-5-ylurea]
30 | 5.2 | O=C(NCc1ccc(N2CCCCCC2)cc1Cl)Nc1cccc2cnccc12 [3-{[4-(azepan-1-yl)-2-chlorophenyl]methyl}-1-isoquinolin-5-ylurea]
31 | 157 | CN(C)c1ccc(CNC(=O)Nc2cccc3cnccc23)cc1 [3-{[4-(dimethylamino)phenyl]methyl}-1-isoquinolin-5-ylurea]
32 | 7360 | Cc1cc2c(NC(=O)NCc3ccc(N4Cc5ccccc5C4)c(F)c3)cccc2cn1 [3-{[4-(2,3-dihydro-1H-isoindol-2-yl)-3-fluorophenyl]methyl}-1-(3-methylisoquinolin-5-yl)urea]
33 | 9.8 | Nc1cc2c(NC(=O)NCc3ccc(N4CCCCCC4)cc3)cccc2cn1 [1-(3-aminoisoquinolin-5-yl)-3-{[4-(azepan-1-yl)phenyl]methyl}urea]
34 | 133 | O=C(NCc1ccc(N2CCCCCC2)cc1C(F)(F)F)Nc1cccc2[nH]ncc12 [1-{[4-(azepan-1-yl)-2-(trifluoromethyl)phenyl]methyl}-3-1H-indazol-4-ylurea]
35 | 14.2 | O=C(NCc1ccc(N2CCCCCC2)c(F)c1)Nc1cccc2[nH]ncc12 [1-{[4-(azepan-1-yl)-3-fluorophenyl]methyl}-3-1H-indazol-4-ylurea]
36 | 156 | O=C(NCc1ccc(N2CCOCC2)cc1)Nc1cccc2cnc(Cl)cc12 [1-(3-chloroisoquinolin-5-yl)-3-{[4-(morpholin-4-yl)phenyl]methyl}urea]
37 | 190 | O=C(NCc1ccc(N2CCCCCC2)cc1Cl)Nc1cccc2[nH]ncc12 [1-{[4-(azepan-1-yl)-2-chlorophenyl]methyl}-3-1H-indazol-4-ylurea]

Row | Structure (SMILES) | EC50 [nM]
38 | O=C(NCc1ccc(N2[C@@H]3CCC[C@H]2CC3)cc1)Nc1cccc2[nH]ncc12 [1-({4-[(1R,5S)-8-azabicyclo[3.2.1]octan-8-yl]phenyl}methyl)-3-1H-indazol-4-ylurea] | 18
39 | O=C(NCc1ccc(N2[C@@H]3CCC[C@H]2CC3)cc1C(F)(F)F)Nc1cccc2[nH]ncc12 [1-({4-[(1R,5S)-8-azabicyclo[3.2.1]octan-8-yl]-2-(trifluoromethyl)phenyl}methyl)-3-1H-indazol-4-ylurea] | 54.5
40 | O=C(NCc1ccc(N2[C@@H]3CCC[C@H]2CC3)cc1Cl)Nc1cccc2[nH]ncc12 [1-({4-[(1R,5S)-8-azabicyclo[3.2.1]octan-8-yl]-2-chlorophenyl}methyl)-3-1H-indazol-4-ylurea] | 58.8
